Patent publication US20080009418A1, “Selective Inhibitors” (Alchemia LTD., priority 2004, published 2008)

How the values were obtained:
[1] = target: T1, Human melanin-concentrating hormone (MCH1) (Homo sapiens, UniProt Q99705); assay: Radioligand binding, human melanin-concentrating hormone MCH1 membranes, FlashPlate, [125I]-S36057; conditions: compound at 10 μM; for A6 radioligand binding inhibition: human MCH1 membranes
T1 construct: purchased Perkin Elmer Biosignal
Summary of the method: (§1)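 Cloned human receptor membranes were coated onto FlashPlate wells and incubated with radioligand and compound (added from a 0.5 mM DMSO daughter plate) for 1 hour at room temperature in the dark. Scintillation counting gave percent inhibition, with DMSO defining total and reference ligand defining non-specific binding.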

Human δ-opioid (DOP) = target: T2, Human δ-opioid (DOP) (Homo sapiens, UniProt P41143); assay: Radioligand binding, human δ-opioid (DOP) membranes, FlashPlate, [3H]-Bremazocine; conditions: compound at 10 μM; for A1: inhibition of radioligand binding: [3H]-Bremazocine; for A1 radioligand binding inhibition: human δ-opioid (DOP) membranes
T2 construct: purchased Perkin Elmer Biosignal
Summary of the method: as §1

[2] = target: T3, Human neuropeptide Y (NPY-Y1) (Homo sapiens, UniProt P25929); assay: Radioligand binding, human neuropeptide Y NPY-Y1 membranes, FlashPlate, [125I]-PYY; conditions: compound at 10 μM; for A9: inhibition of radioligand binding: [125I]-PYY
T3 construct: purchased Perkin Elmer Biosignal
T3 sequence (P25929 1-384): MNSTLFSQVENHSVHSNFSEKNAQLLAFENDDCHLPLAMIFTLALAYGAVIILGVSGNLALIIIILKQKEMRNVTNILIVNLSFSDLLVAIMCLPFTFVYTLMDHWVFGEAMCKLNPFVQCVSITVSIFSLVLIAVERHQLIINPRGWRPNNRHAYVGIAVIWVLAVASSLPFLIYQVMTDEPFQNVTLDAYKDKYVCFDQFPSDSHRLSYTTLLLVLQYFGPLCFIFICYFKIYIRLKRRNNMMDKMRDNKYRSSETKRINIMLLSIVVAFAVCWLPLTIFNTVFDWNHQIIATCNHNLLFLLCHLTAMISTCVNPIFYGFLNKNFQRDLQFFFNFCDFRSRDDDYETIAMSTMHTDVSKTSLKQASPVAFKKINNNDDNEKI
Summary of the method: as §1

Human neurokinin (NK1) = target: T4, Human neurokinin (NK1) (Homo sapiens, UniProt P25103); assay: Radioligand binding, human neurokinin NK1 membranes, filtration, [125I]-Substance P; conditions: compound at 10 μM; for A8: inhibition of radioligand binding: [125I]-Substance P; for A8 radioligand binding inhibition: human neurokinin NK1 membranes
T4 construct: purchased Perkin Elmer Biosignal
Summary of the method: (§2)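 Filtration binding on cloned human receptor membranes (1 Unit/well), [125I]-Substance P for NK1 and [3H]-Diprenorphine for KOP, 1 h at room temperature. Filters PEI-presoaked, washed with cold 50 mM Tris-HCl pH 7.4, counted by scintillation; percent inhibition calculated, reference ligand defining non-specific binding.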

Human μ-opioid (MOP) = target: T5, Human μ-opioid (MOP) (Homo sapiens, UniProt P35372); assay: Radioligand binding, human μ-opioid (MOP) membranes, FlashPlate, [3H]-Naloxone; conditions: compound at 10 μM; for A7: inhibition of radioligand binding: [3H]-Naloxone; for A7 radioligand binding inhibition: human μ-opioid (MOP) membranes
T5 construct: purchased Perkin Elmer Biosignal
Summary of the method: as §1

Human melanocortin (MC5) = target: T6, Human melanocortin (MC5) (Homo sapiens, UniProt P33032); assay: Radioligand binding, human melanocortin MC5 membranes, FlashPlate, [125I]-NDP-αMSH; conditions: compound at 10 μM; for A5: inhibition of radioligand binding: [125I]-NDP-αMSH; for A5 radioligand binding inhibition: human melanocortin MC5 membranes
T6 construct: purchased Perkin Elmer Biosignal
Summary of the method: as §1

Human κ-Opioid (KOP) = target: T7, Human κ-Opioid (KOP) (Homo sapiens, UniProt P41145); assay: Radioligand binding, human κ-opioid (KOP) membranes, filtration, [3H]-Diprenorphine; conditions: compound at 10 μM; for A2: inhibition of radioligand binding: [3H]-Diprenorphine; for A2 radioligand binding inhibition: human κ-opioid (KOP) membranes
T7 construct: purchased Perkin Elmer Biosignal
Summary of the method: as §2

Human Melanocortin (MC4) = target: T8, Human Melanocortin (MC4) (Homo sapiens, UniProt P32245); assay: Radioligand binding, human melanocortin MC4 membranes, FlashPlate, [125I]-NDP-αMSH; conditions: compound at 10 μM; for A4: inhibition of radioligand binding: [125I]-NDP-αMSH; for A4 radioligand binding inhibition: human melanocortin MC4 membranes
T8 construct: purchased Perkin Elmer Biosignal
Summary of the method: as §1

Human opioid (ORL1) = target: T9, Human opioid (ORL1) (Homo sapiens, UniProt P41146); assay: Radioligand binding, human opioid ORL1 membranes, FlashPlate, [125I]-Nociceptin; conditions: compound at 10 μM; for A10: inhibition of radioligand binding: [125I]-Nociceptin
T9 construct: purchased Perkin Elmer Biosignal
Summary of the method: as §1

Mouse urotensin (mUR2) = target: T10, Mouse urotensin (mUR2) (Mus musculus, UniProt Q8VIH9); assay: Radioligand binding, mouse urotensin mUR2 membranes, FlashPlate, [125I]-Urotensin II; conditions: compound at 10 μM; for A11: inhibition of radioligand binding: [125I]-Urotensin II; for A11 radioligand binding inhibition: mouse urotensin mUR2 membranes
T10 construct: purchased Perkin Elmer Biosignal
T10 sequence (Q8VIH9 1-385): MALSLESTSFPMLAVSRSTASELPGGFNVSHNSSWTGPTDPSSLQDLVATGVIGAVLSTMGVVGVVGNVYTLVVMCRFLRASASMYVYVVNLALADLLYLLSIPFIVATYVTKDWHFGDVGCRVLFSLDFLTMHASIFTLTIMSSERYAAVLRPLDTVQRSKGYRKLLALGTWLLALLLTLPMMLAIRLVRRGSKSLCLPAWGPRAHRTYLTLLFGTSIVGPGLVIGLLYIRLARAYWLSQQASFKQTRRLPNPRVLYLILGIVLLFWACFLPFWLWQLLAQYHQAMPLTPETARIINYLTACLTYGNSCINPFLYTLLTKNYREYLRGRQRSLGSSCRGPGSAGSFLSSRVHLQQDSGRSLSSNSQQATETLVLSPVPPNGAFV
Summary of the method: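 Cloned mouse urotensin (mUR2) receptor membranes from Perkin Elmer Biosignal were immobilized in FlashPlate microplates using a proprietary coating. Each well got 19.5 μl buffer, then 0.5 μl of DMSO, reference ligand, or compound. Adding 5 μl of [125I]-Urotensin II, diluted to 5× final concentration in binding buffer, started binding. Plates were sealed with TopSeal-A and incubated 1 hour at room temperature in the dark. Wells were counted for 30 seconds each on a TopCount after a 60-second delay, and percentage inhibition was calculated.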

Human Melanocortin (MC3) = target: T11, Human Melanocortin (MC3) (Homo sapiens, UniProt P41968); assay: Radioligand binding, human melanocortin MC3 membranes, FlashPlate, [125I]-NDP-αMSH; conditions: compound at 10 μM; for A3: inhibition of radioligand binding: [125I]-NDP-αMSH; for A3 radioligand binding inhibition: human melanocortin MC3 membranes
T11 construct: purchased Perkin Elmer Biosignal
Summary of the method: as §1

T5 sequence (P35372 whole entry): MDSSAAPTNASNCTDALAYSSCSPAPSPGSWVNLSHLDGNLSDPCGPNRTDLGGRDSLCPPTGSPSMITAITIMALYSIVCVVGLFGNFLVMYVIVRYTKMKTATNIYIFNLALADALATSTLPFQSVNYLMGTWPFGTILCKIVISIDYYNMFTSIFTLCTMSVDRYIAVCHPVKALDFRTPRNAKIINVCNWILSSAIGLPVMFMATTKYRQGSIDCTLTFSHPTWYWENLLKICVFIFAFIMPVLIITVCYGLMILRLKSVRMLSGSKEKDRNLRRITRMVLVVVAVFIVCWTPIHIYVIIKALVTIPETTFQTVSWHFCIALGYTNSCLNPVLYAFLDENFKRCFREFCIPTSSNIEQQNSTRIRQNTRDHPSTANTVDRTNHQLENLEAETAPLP
T8 sequence (P32245 whole entry): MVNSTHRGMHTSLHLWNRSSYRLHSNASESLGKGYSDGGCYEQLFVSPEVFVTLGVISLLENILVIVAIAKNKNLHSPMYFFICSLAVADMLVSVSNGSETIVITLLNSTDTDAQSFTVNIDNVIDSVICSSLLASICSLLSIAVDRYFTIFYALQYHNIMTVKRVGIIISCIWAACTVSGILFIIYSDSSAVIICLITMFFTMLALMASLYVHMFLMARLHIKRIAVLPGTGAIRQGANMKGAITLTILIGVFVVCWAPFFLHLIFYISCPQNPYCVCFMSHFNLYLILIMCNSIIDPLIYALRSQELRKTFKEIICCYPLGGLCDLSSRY
T1 sequence (Q99705 whole entry): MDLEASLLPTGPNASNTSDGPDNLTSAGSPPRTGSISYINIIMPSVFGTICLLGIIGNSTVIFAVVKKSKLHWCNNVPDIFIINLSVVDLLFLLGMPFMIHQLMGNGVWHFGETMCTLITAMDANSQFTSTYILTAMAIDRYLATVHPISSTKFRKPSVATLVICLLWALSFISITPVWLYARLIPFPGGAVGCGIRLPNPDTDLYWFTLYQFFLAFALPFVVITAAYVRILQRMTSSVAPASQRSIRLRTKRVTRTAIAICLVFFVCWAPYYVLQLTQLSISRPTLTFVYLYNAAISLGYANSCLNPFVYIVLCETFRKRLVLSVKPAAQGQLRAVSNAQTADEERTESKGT
T2 sequence (P41143 whole entry): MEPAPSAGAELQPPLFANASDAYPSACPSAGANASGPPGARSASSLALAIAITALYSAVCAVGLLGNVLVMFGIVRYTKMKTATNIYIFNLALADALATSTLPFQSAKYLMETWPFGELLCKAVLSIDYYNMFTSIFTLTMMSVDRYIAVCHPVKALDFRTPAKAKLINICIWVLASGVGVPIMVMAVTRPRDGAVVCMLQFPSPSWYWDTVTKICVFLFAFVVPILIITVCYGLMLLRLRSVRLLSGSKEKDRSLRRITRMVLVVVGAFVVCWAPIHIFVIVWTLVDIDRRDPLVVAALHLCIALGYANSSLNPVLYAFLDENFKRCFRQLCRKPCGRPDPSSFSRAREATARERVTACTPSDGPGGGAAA
T7 sequence (P41145 whole entry): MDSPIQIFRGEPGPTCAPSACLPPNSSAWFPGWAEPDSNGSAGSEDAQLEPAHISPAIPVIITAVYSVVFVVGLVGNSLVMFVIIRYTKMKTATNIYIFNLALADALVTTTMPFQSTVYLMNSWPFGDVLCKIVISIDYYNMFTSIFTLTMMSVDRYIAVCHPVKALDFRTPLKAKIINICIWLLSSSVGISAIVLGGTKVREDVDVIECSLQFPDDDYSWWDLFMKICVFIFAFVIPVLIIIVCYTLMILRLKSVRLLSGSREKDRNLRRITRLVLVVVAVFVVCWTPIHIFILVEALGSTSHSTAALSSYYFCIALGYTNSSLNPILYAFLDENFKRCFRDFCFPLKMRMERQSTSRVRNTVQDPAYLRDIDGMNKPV
T9 sequence (P41146 whole entry): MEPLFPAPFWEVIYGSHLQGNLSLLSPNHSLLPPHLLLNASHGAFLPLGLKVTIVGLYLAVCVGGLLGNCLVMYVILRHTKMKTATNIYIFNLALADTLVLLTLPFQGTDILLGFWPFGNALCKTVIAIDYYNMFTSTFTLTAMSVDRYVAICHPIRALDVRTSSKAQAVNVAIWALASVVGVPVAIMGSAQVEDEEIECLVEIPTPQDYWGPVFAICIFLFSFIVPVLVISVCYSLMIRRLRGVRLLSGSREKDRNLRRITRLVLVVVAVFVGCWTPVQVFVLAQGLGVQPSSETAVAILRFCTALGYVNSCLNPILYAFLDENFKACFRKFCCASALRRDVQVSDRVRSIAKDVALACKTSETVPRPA
T6 sequence (P33032 whole entry): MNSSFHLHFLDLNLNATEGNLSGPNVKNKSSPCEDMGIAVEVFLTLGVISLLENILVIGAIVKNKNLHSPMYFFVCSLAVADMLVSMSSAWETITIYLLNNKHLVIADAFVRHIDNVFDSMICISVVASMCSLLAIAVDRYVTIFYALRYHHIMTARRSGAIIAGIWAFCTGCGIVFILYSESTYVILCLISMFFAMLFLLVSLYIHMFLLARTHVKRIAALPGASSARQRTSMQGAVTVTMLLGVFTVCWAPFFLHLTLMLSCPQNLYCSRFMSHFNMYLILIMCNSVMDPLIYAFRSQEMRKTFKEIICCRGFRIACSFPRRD
T11 sequence (P41968 whole entry): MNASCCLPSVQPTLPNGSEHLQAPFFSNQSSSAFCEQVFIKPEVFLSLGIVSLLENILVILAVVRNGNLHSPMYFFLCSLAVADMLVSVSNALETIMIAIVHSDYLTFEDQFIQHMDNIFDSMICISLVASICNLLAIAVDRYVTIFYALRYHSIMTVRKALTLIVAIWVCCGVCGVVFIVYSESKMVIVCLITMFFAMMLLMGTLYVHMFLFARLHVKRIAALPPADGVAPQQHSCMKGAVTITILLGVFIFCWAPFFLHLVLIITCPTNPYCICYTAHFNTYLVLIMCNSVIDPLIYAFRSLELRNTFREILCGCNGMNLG
T4 sequence (P25103 whole entry): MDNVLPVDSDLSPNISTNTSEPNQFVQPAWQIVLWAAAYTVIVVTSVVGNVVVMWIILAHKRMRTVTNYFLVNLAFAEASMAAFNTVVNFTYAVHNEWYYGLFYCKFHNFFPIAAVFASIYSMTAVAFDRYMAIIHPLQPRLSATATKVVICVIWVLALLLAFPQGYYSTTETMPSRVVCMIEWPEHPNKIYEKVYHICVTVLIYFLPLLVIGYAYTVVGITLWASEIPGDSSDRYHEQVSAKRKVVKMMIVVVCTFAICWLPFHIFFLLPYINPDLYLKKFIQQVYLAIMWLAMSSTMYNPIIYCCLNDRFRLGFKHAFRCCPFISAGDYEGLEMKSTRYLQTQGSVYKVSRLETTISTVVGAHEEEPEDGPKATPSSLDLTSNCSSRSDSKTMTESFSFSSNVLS

| SMILES | A6: inhibition of radioligand binding ([1]; [125I]-S36057, FlashPlate) | A1: inhibition of radioligand binding (Human δ-opioid (DOP); FlashPlate) | A9: inhibition of radioligand binding ([2]; FlashPlate) | A8: inhibition of radioligand binding (Human neurokinin (NK1); filtration) | A7: inhibition of radioligand binding (Human μ-opioid (MOP); FlashPlate) | A5: inhibition of radioligand binding (Human melanocortin (MC5); FlashPlate) | A2: inhibition of radioligand binding (Human κ-Opioid (KOP); filtration) | A4: inhibition of radioligand binding (Human Melanocortin (MC4); FlashPlate) | A10: inhibition of radioligand binding (Human opioid (ORL1); FlashPlate) | A11: inhibition of radioligand binding (Mouse urotensin (mUR2); FlashPlate) | A3: inhibition of radioligand binding (Human Melanocortin (MC3); FlashPlate) | A6 radioligand binding inhibition [1] | A1 radioligand binding inhibition (Human δ-opioid (DOP)) | A9 radioligand binding inhibition ([2]; human NPY-Y1 membranes) | A8 radioligand binding inhibition (Human neurokinin (NK1)) | A7 radioligand binding inhibition (Human μ-opioid (MOP)) | A5 radioligand binding inhibition (Human melanocortin (MC5)) | A2 radioligand binding inhibition (Human κ-Opioid (KOP)) | A4 radioligand binding inhibition (Human Melanocortin (MC4)) | A10 radioligand binding inhibition (Human opioid (ORL1); human ORL1 membranes) | also measured |
| --- | --- | --- | --- | --- | --- | --- | --- | --- | --- | --- | --- | --- | --- | --- | --- | --- | --- | --- | --- | --- | --- |
| COCC1OC(OCc2ccc(Cl)cc2)C(NC(=O)CCNC(=N)N)C(OCc2ccccc2)C1O (stereo not shown) [compound 196] | − (“−” indicates less than 50% inhibition at 10 μM) | + (“+” indicates greater than 50% inhibition at 10 μM) | − (“−” indicates less than 50% inhibition at 10 μM) | + (“+” indicates greater than 50% inhibition at 10 μM) | − (“−” indicates less than 50% inhibition at 10 μM) | − (“−” indicates less than 50% inhibition at 10 μM) | − (“−” indicates less than 50% inhibition at 10 μM) | − (“−” indicates less than 50% inhibition at 10 μM) | − (“−” indicates less than 50% inhibition at 10 μM) | − (“−” indicates less than 50% inhibition at 10 μM) | − (“−” indicates less than 50% inhibition at 10 μM) |  |  |  |  |  |  |  |  |  |  |
| N=C(N)NCCC(=O)NC1C(OCc2ccc(Cl)cc2)OC(COCc2ccccc2)C(O)C1OCc1ccc(Cl)cc1 (stereo not shown) [compound 427] |  |  |  |  |  |  |  |  |  |  |  |  |  |  |  |  |  |  |  |  | A6: inhibition of radioligand binding ([1]; [125I]-S36057, human MCH1 membranes): + (“+” indicates greater than 50% inhibition at 10 μM); A1: inhibition of radioligand binding (Human δ-opioid (DOP); human DOP membranes): − (“−” indicates less than 50% inhibition at 10 μM); A9: inhibition of radioligand binding ([2]; human NPY-Y1 membranes): − (“−” indicates less than 50% inhibition at 10 μM); A8: inhibition of radioligand binding (Human neurokinin (NK1); human NK1 membranes): + (“+” indicates greater than 50% inhibition at 10 μM); A7: inhibition of radioligand binding (Human μ-opioid (MOP); human MOP membranes): − (“−” indicates less than 50% inhibition at 10 μM); A5: inhibition of radioligand binding (Human melanocortin (MC5); human MC5 membranes): + (“+” indicates greater than 50% inhibition at 10 μM); A2: inhibition of radioligand binding (Human κ-Opioid (KOP); human KOP membranes): − (“−” indicates less than 50% inhibition at 10 μM); A4: inhibition of radioligand binding (Human Melanocortin (MC4); human MC4 membranes): + (“+” indicates greater than 50% inhibition at 10 μM); A10: inhibition of radioligand binding (Human opioid (ORL1); human ORL1 membranes): + (“+” indicates greater than 50% inhibition at 10 μM); A11: inhibition of radioligand binding (Mouse urotensin (mUR2); mouse mUR2 membranes): − (“−” indicates less than 50% inhibition at 10 μM); A3: inhibition of radioligand binding (Human Melanocortin (MC3); human MC3 membranes): + (“+” indicates greater than 50% inhibition at 10 μM) |
| CO[C@H]1[C@H](O)[C@@H](COCc2ccc(-c3ccccc3)cc2)OC(OCc2ccc(-c3ccccc3)cc2)[C@@H]1NC(=O)CCCN (stereo partly shown) [compound 53] |  |  |  |  |  |  |  |  |  |  |  | + (“+” indicates greater than 50% inhibition at 10 μM) | − (“−” indicates less than 50% inhibition at 10 μM) | − (“−” indicates less than 50% inhibition at 10 μM) | − (“−” indicates less than 50% inhibition at 10 μM) | − (“−” indicates less than 50% inhibition at 10 μM) | − (“−” indicates less than 50% inhibition at 10 μM) | − (“−” indicates less than 50% inhibition at 10 μM) | − (“−” indicates less than 50% inhibition at 10 μM) | − (“−” indicates less than 50% inhibition at 10 μM) | A11 radioligand binding inhibition (Mouse urotensin (mUR2)): − (“−” indicates less than 50% inhibition at 10 μM); A3 radioligand binding inhibition (Human Melanocortin (MC3)): − (“−” indicates less than 50% inhibition at 10 μM) |
| CSC1OC(COCc2ccc3ccccc3c2)C(O)C(OCc2ccccc2)C1NC(=O)CCNC(=N)N (stereo not shown) [compound 262] | − (“−” indicates less than 50% inhibition at 10 μM) | − (“−” indicates less than 50% inhibition at 10 μM) | − (“−” indicates less than 50% inhibition at 10 μM) | + (“+” indicates greater than 50% inhibition at 10 μM) | − (“−” indicates less than 50% inhibition at 10 μM) | + (“+” indicates greater than 50% inhibition at 10 μM) | − (“−” indicates less than 50% inhibition at 10 μM) | − (“−” indicates less than 50% inhibition at 10 μM) | − (“−” indicates less than 50% inhibition at 10 μM) | − (“−” indicates less than 50% inhibition at 10 μM) | − (“−” indicates less than 50% inhibition at 10 μM) |  |  |  |  |  |  |  |  |  |  |
| COC[C@H]1OC(OCc2ccc(-c3ccccc3)cc2)[C@H](NC(=O)CCNC(=N)N)[C@@H](OCc2ccc3ccccc3c2)[C@@H]1O (stereo partly shown) [compound 4] |  |  |  |  |  |  |  |  |  |  |  | + (“+” indicates greater than 50% inhibition at 10 μM) | − (“−” indicates less than 50% inhibition at 10 μM) | − (“−” indicates less than 50% inhibition at 10 μM) | + (“+” indicates greater than 50% inhibition at 10 μM) | − (“−” indicates less than 50% inhibition at 10 μM) | + (“+” indicates greater than 50% inhibition at 10 μM) | − (“−” indicates less than 50% inhibition at 10 μM) | − (“−” indicates less than 50% inhibition at 10 μM) | − (“−” indicates less than 50% inhibition at 10 μM) | A11 radioligand binding inhibition (Mouse urotensin (mUR2)): − (“−” indicates less than 50% inhibition at 10 μM); A3 radioligand binding inhibition (Human Melanocortin (MC3)): − (“−” indicates less than 50% inhibition at 10 μM) |
